According to ChEMBL document CHEMBL2417422, “Modulation of human neutrophils' oxidative burst by flavonoids” (Eur J Med Chem, 2013):
The source made the active and inactive calls. The rule behind the calls is not given here.

What was measured:
Neutrophil [1] = test: Inhibition of oxidative burst in PMA-stimulated human neutrophils assessed as inhibition of superoxide anion radical-induced lucigenin oxidation incubated for 5 mins prior to PMA challenge by chemiluminescence assay; assay type: functional, cell-based
Neutrophil [2] = test: Inhibition of oxidative burst in PMA-stimulated human neutrophils assessed as inhibition of H2O2-induced oxidation of amplex red up to 100 uM incubated for 5 mins prior to PMA challenge by fluorescence assay; assay type: functional
[3] = Cytotoxicity against human neutrophils assessed as cell viability at 100 uM after 1 hr by trypan blue exclusion assay; assay type: cell-based, Neutrophil; settings: read-out: Activity
Neutrophil [4] = test: Inhibition of oxidative burst in PMA-stimulated human neutrophils assessed as inhibition of ROS-induced luminol oxidation incubated for 5 mins prior to PMA challenge by chemiluminescence assay; assay type: functional, cell-based
Neutrophil [5] = test: Inhibition of oxidative burst in PMA-stimulated human neutrophils assessed as inhibition of H2O2-induced oxidation of amplex red at 40 uM incubated for 5 mins prior to PMA challenge by fluorescence assay; assay type: functional
Neutrophil [6] = test: Inhibition of oxidative burst in PMA-stimulated human neutrophils assessed as inhibition of HOCl-induced oxidation of APF after 6 mins by fluorescence assay; assay type: functional, cell-based; settings: 0.1 h
Neutrophil [7] = test: Inhibition of oxidative burst in PMA-stimulated human neutrophils assessed as inhibition of H2O2-induced oxidation of amplex red incubated for 5 mins prior to PMA challenge by fluorescence assay; assay type: functional, cell-based
Neutrophil [8] = test: Inhibition of oxidative burst in PMA-stimulated human neutrophils assessed as inhibition of ROS-induced luminol oxidation up to 100 uM incubated for 5 mins prior to PMA challenge by chemiluminescence assay; assay type: functional
Neutrophil [9] = test: Inhibition of oxidative burst in PMA-stimulated human neutrophils assessed as inhibition of superoxide anion radical-induced lucigenin oxidation up to 100 uM incubated for 5 mins prior to PMA challenge by chemiluminescence assay; assay type: functional
[10] = target: T1, Myeloperoxidase (Homo sapiens) (UniProt P05164); test: Inhibition of MPO (unknown origin); settings: concentration not given here
T1 sequence (whole entry): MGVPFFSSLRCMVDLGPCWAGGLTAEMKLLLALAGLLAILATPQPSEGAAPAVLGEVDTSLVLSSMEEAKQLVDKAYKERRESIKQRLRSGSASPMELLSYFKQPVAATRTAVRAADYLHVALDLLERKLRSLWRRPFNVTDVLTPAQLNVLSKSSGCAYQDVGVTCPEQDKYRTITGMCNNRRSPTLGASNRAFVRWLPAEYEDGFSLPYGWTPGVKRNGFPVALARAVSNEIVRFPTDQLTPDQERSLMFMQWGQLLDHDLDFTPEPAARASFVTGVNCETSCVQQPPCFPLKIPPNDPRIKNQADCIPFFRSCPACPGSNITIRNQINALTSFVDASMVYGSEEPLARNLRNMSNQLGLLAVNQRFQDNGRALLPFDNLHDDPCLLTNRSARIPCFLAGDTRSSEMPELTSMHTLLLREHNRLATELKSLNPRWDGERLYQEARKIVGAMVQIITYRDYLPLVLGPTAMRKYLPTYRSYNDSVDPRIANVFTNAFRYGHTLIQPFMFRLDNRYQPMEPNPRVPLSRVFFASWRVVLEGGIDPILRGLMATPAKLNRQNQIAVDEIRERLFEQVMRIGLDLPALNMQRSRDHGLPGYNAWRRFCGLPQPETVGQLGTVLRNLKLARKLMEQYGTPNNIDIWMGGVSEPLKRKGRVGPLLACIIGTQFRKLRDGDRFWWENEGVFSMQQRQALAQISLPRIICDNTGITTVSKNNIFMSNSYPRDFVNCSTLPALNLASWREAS

Neutrophil [11] = test: Inhibition of oxidative burst in PMA-stimulated human neutrophils assessed as inhibition of ROS-induced luminol oxidation at 25 uM incubated for 5 mins prior to PMA challenge by chemiluminescence assay; assay type: functional
Neutrophil [12] = test: Inhibition of oxidative burst in PMA-stimulated human neutrophils assessed as inhibition of HOCl-induced oxidation of APF up to 100 uM after 6 mins by fluorescence assay; assay type: functional, cell-based

Row | SMILES | IC50 (Neutrophil [1]) [µM] | IC50 (Neutrophil [4]) [µM] | IC50 (Neutrophil [6]) [µM] | IC50 (Neutrophil [7]) [µM] | inhibition [10] [%] | inhibition (INH) (Neutrophil [2]) [%] | viability at 1 h, 100 µM [3] [%] | inhibition at 40 µM (Neutrophil [5]) [%] | inhibition (INH) (Neutrophil [8]) [%] | inhibition (Neutrophil [7]) | inhibition (INH) (Neutrophil [9]) [%] | inhibition at 25 µM (Neutrophil [11]) [%] | inhibition (Neutrophil [12])
1 | O=c1cc(-c2cccc(O)c2)oc2ccccc12 | 47 | 24 | – | – | – | <40 | > 98 | 17 | – | – | – | – | –
2 | NNC(=O)c1ccc(N)cc1 | – | 43.6 | 30.6 | – | – | – | – | – | – | – | – | – | –
3 | O=c1cc(-c2ccc(O)c(O)c2)oc2ccccc12 | 8.1 | 3 | 0.9 | 3.2 | – | – | > 98 | – | – | – | – | – | –
4 | O=c1cc(-c2ccc(O)c(O)c2)oc2cccc(O)c12 | 4.9 | 1.6 | 0.39 | 3.2 | – | – | > 98 | – | – | – | – | – | –
5 | O=c1cc(-c2ccc(O)cc2)oc2cc(O)ccc12 | 26.9 | – | – | – | – | <40 | > 98 | – | <40 | – | – | – | –
6 | O=c1cc(-c2ccc(O)c(O)c2)oc2cc(O)ccc12 | 14.7 | 13.5 | 5.2 | 3.7 | – | – | > 98 | – | – | – | – | – | –
7 | O=c1cc(-c2cccc(O)c2)oc2cc(O)cc(O)c12 | 15.8 | 10 | 65.4 | – | – | <40 | > 98 | – | – | – | – | – | –
8 | O=c1cc(-c2ccc(O)cc2)oc2cccc(O)c12 | 67.8 | 18 | – | – | – | <40 | > 98 | 20 | – | – | – | – | –
9 | O=C1CC(c2ccc(O)cc2)Oc2cc(O)cc(O)c21 (racemic) | 31 | 51.4 | – | – | – | <40 | > 98 | – | – | – | – | – | –
10 | COc1ccc(-c2cc(=O)c3c(O)cc(O)cc3o2)cc1O [DIOSMETIN] | 15 | 3.6 | 0.7 | 10.3 | – | – | – | – | – | – | – | – | –
11 | O=c1cc(-c2ccccc2)oc2ccccc12 [FLAVONE] | 57 | – | 64.9 | – | – | – | > 98 | – | <40 | inactive | – | – | –
12 | O=c1cc(-c2ccc(O)c(O)c2)oc2cc(O)cc(O)c12 [LUTEOLIN] | 9.5 | 9.3 | 0.9 | 4 | – | – | > 98 | – | – | – | – | – | –
13 | O=c1c(O)c(-c2ccc(O)c(O)c2)oc2cc(O)cc(O)c12 [QUERCETIN] | 11.3 | 26 | 0.7 | 8 | – | – | > 98 | – | – | – | – | – | –

Now from value to molecule, other results behind:

Row | IC50 (Neutrophil [1]) [µM] | IC50 (Neutrophil [4]) [µM] | IC50 (Neutrophil [6]) [µM] | IC50 (Neutrophil [7]) [µM] | inhibition [10] [%] | SMILES | inhibition (INH) (Neutrophil [2]) [%] | viability at 1 h, 100 µM [3] [%] | inhibition at 40 µM (Neutrophil [5]) [%] | inhibition (INH) (Neutrophil [8]) [%] | inhibition (Neutrophil [7]) | inhibition (INH) (Neutrophil [9]) [%] | inhibition at 25 µM (Neutrophil [11]) [%] | inhibition (Neutrophil [12])
14 | 34.8 | 37.4 | – | 79.6 | – | O=c1cc(-c2cccc(O)c2)oc2cc(O)ccc12 | – | > 98 | – | – | – | – | – | –
15 | – | 40.3 | – | – | – | O=c1cc(-c2ccc(O)cc2)oc2ccccc12 | – | > 98 | – | – | inactive | <40 | – | –
16 | 32 | 14.5 | – | – | – | O=c1cc(-c2cccc(O)c2)oc2cccc(O)c12 | <40 | > 98 | 20 | – | – | – | – | –
17 | 16 | 57.6 | 3.33 | – | – | COc1ccc(-c2cc(=O)c3c(O)cc(O)cc3o2)cc1OC | <40 | > 98 | – | – | – | – | – | –
18 | 15.5 | 18 | 1.4 | 4 | 40 | O=C1CC(c2ccc(O)c(O)c2)Oc2cc(O)cc(O)c21 (racemic) | – | > 98 | – | – | – | – | – | –
19 | 96 | – | – | – | – | O=c1cc(-c2ccccc2)oc2cccc(O)c12 [5-HYDROXYFLAVONE] | – | > 98 | – | <40 | inactive | – | 30.1 | –
20 | 33 | – | – | – | – | O=c1cc(-c2ccccc2)oc2cc(O)ccc12 [7-HYDROXYFLAVONE] | <40 | > 98 | – | <40 | – | – | – | –
21 | 15.5 | 53.5 | 15.3 | 41.3 | 40 | O=C1c2c(O)cc(O)cc2O[C@H](c2ccc(O)c(O)c2)[C@H]1O [(+)-TAXIFOLIN] | – | > 98 | – | – | – | – | – | –
22 | 7 | – | – | – | – | COc1ccc(-c2cc(=O)c3c(O)cc(O)cc3o2)cc1 [ACACETIN] | – | > 98 | – | <40 | inactive | – | 26.7 | inactive
23 | 7.7 | 24 | 12.3 | 16.2 | – | O=c1cc(-c2ccc(O)cc2)oc2cc(O)cc(O)c12 [APIGENIN] | – | > 98 | – | – | – | – | – | –
24 | 9.59 | 53 | – | – | – | O=c1cc(-c2ccccc2)oc2cc(O)cc(O)c12 [CHRYSIN] | – | > 98 | – | – | inactive | – | – | inactive
25 | 7.1 | 2.8 | 0.4 | 8.6 | – | COc1cc(-c2cc(=O)c3c(O)cc(O)cc3o2)ccc1O [CHRYSOERIOL] | – | – | – | – | – | – | – | –
